Consider one compound from patent publication US11141383B1, “Drug loaded flexible chitoplexes nanoparticles” (King Abdulaziz University, priority 2020, dated 2021).

Data set [1] in a line: In vitro release study (dialysis bag, phosphate buffer pH 7.4). The class given is physicochemical. The procedure:
The in vitro release of RSV from the prepared liposomal NPs, chitoplexes nano-formulation and pure drug suspension was studied. A quantity of each preparation containing 9 mg of drug was placed in a firmly sealed dialysis bag (Sigma-Aldrich Inc.) of a molecular weight cut-off 14 kDa. The dialysis bag was immersed in a glass bottle containing 400 mL phosphate buffer of pH 7.4. The bottles were kept in a shaking water bath (Model 1031; GFL Corporation, Burgwedel, Germany) at 37° C. and 100 rpm. The parameters of the in vitro release study were selected to achieve a sink condition. Aliquots of 2 mL were taken from the receptor compartment at predetermined time intervals with immediate replacement. The quantity of RSV in the withdrawn samples was determined spectrophotometrically at 242 nm. The experiment was done in triplicate for each formulation and mean values were calculated.

The conditions of data set [2]: cited from earlier work.
The test system of data set [3] is human colorectal (HCT-116) cells. Nature of the data set: Cell viability and cytotoxicity assay (MTT). In kind it is cell-based. To be noted: HCT-116, MTT. The procedure:
This test aimed to determine the effect of the prepared RSV lipid-based NPs formulations on intestinal cell viability and cytotoxicity. The potential effects of both formulations on human colorectal (HCT-116) cells were assessed by 3-(4,5-dimethylthiazol-2-yl)2,5-diphenyl tetrazolium bromide (MTT) assay. Cells were seeded on 96-well plates (1×10^4 cells/well) and incubated at 37° C. under a humidified atmosphere of 5% CO2 for 24 h. […] Each formulation was compared with a drug-free carrier as a negative control. After incubation, SFM in the control and test wells were replaced by 100 μL/well of MTT solution (0.5 mg/ml) in PBS and incubated at 37° C. for another 3 h. The MTT solution was removed and the purple formazan crystals formed at the bottom of the wells were dissolved using 100 μL DMSO/well with shaking for 2 h at room temperature. The intensity of the color obtained was measured at 549 nm using a microplate reader (ELX 800; Bio-Tek Instruments, Winooski, Vt., USA). Data, expressed as the percentage of viable cells, were compared to the survival of a control group. Values of the half maximal inhibitory concentration (IC50) were also estimated. Cells treated with DMSO only were defined as 100%
To examine the biocompatibility and cytotoxic effects of plain and drug loaded liposomal NPs or chitoplexes nano-formulation, HCT-116 cells were treated with different concentrations of these samples for 3 days and the MTT assay was performed to investigate the effect of these formulation on the viability of living cells. This test depends on the production of a colored formazan by the action of the viable cells' mitochondrial enzymes on MTT. Cells were exposed to increasing RSV concentrations of drug loaded liposomal NPs and chitoplexes nano-formulation standardized at certain RSV concentrations. Cells were also incubated with blank liposomal NPs and chitoplexes nano-formulation to exclude the effect of RSV. […]

For data set [4] the following is noted: cited from earlier work. The source holds these as a separate data set.

Where two headings read alike, the source gives them in different places.

With `CC(C)c1nc(N(C)S(C)(=O)=O)nc(-c2ccc(F)cc2)c1/C=C/[C@@H](O)C[C@@H](O)CC(=O)O` [RSV pure, Rosuvastatin], the “drug release after 24 h” value in data set [1] (dialysis bag 14 kDa, phosphate buffer pH 7.4, 37° C., 100 rpm, 24 h) is on record as 37.28±2.86%. Further, the drug release pattern entry in data set [1] (dialysis bag, phosphate buffer pH 7.4, FIG. 4) is on record as “overall low drug release pattern”. The water solubility entry in data set [2] is reported as “low”. In addition, the IC50 in data set [3] (after 24 h, read-out: IC50 (μM) after 24 h) was found to be 248 µM. Moreover, the IC50 in data set [3] (after 48 h, read-out: IC50 (μM) after 48 h) was 237 µM. Besides, in data set [3] (after 72 h, read-out: IC50 (μM) after 72 h), the IC50 is 168 µM. Further, in data set [4] (in vivo), the elimination half-life was around 19 h, the excreted in feces is listed as 90% and the “time to maximum plasma concentration” value is 3 to 5 h. Further, the “bound to plasma protein” value in data set [4] (mainly to serum albumin) is reported as 88%. In addition, in data set [4] (oral), the oral bioavailability was around 20% and the “orally administered dose absorbed” value is “about 25%”.
